Experimental data as given in patent publication US12528786B2, “Plasma kallikrein inhibitors” (Merck Sharp & Dohme LLC, priority 2020, dated 2026).

Target: T1, Human plasma kallikrein (Homo sapiens, UniProt P03952)
T1 construct: yields a heavy chain (371 amino acids) and a light chain (248 amino acids); purchased Enzyme Research Laboratories
Assay: Kallikrein Assay (fluorogenic substrate hydrolysis, AFC release)
Type: biochemical
Conditions: purified Human plasma kallikrein 0.5 nM; substrate Acetyl-K—P—R-AFC 100 mM; 50 mM HEPES pH 7.4
How it was run: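 Purified human plasma kallikrein (0.5 nM final) with Acetyl-K-P-R-AFC substrate (final ≤0.2 Km) in 50 mM HEPES pH 7.4, 150 mM NaCl, 5 mM CaCl2, 0.1% PEG 8000, after enzyme–inhibitor equilibration; room temperature or 37° C. AFC fluorescence (405 Ex/510 Em nm) under linear conditions; IC50 by four-parameter fit, Ki via Cheng-Prusoff.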

T1 sequence (P03952 391-638 limits assumed): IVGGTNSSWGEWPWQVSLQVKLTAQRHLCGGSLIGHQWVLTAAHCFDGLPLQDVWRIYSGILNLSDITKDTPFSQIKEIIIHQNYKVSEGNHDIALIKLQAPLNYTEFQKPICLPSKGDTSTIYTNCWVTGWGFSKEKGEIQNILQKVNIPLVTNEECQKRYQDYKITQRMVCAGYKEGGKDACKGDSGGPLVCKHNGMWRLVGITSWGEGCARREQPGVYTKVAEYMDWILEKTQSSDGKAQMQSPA
T1 sequence (P03952 20-390 partner limits assumed): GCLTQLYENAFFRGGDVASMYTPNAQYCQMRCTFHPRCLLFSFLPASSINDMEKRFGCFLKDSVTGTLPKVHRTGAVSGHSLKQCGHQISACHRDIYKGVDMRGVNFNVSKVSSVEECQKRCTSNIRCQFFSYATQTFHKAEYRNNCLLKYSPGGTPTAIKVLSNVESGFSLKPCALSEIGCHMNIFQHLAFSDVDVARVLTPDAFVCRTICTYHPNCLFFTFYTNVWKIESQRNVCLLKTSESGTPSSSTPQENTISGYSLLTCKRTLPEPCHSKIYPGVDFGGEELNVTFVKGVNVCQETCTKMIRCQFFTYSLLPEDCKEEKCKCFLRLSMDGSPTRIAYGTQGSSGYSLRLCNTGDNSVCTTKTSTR

| IC50 [nM] | Compound |
| --- | --- |
| 2790 | Cc1cc(N2C[C@H]3C[C@H]3C2=O)ncc1C(C)n1cc(C(=O)N[C@H]2C[C@@H](c3cc(Cl)ccc3OC(F)F)C2)nn1 (single isomer, unassigned) [Example 69, N-((cis)-3-(5-chloro-2-(difluoromethoxy)phenyl)cyclobutyl)-1-((R or S)-1-(4-methyl-6-((1R,5S)-2-oxo-3-azabicyclo[3.1.0]hexan-3-yl)pyridin-3-yl)ethyl)-1H-1,2,3-triazole-4-carboxamide] |
| 130 | Cc1c(C(C)n2cc(C(=O)NC3CC(c4cccc(Cl)c4)C3O)nn2)cnc(N2C[C@H]3C[C@H]3C2=O)c1F (single isomer, unassigned) [Example 125, N-((1R,2R,3R or 1S,2S,3S)-3-(3-chlorophenyl)-2-hydroxycyclobutyl)-1-((S or R)-1-(5-fluoro-4-methyl-6-((1R,5S)-2-oxo-3-azabicyclo[3.1.0]hexan-3-yl)pyridin-3-yl)ethyl)-1H-1,2,3-triazole-4-carboxamide] |
| 0.2 | Cc1c(C(C)n2cc(C(=O)N[C@H]3C[C@@H](c4cc(Cl)ccc4C#N)C3)cn2)cnc(N2C[C@H]3C[C@H]3C2=O)c1F (single isomer, unassigned) [Example 28, N-((cis)-3-(5-chloro-2-cyanophenyl)cyclobutyl)-1-((R or S)-1-(5-fluoro-4-methyl-6-((1R,5S)-2-oxo-3-azabicyclo[3.1.0]hexan-3-yl)pyridin-3-yl)ethyl)-1H-pyrazole-4-carboxamide] |
| 95.9 | Cc1c([C@@H](C)n2cc(C(=O)N[C@H]3C[C@@H](c4cc(Cl)ccc4C#N)C3)nn2)nc(N2C[C@H]3C[C@H]3C2=O)n1C (single isomer, unassigned) [Example 161] |
| 7.7 | CC(c1ccc(N2C[C@H]3C[C@H]3C2=O)nc1)n1cc(C(=O)N[C@H]2C[C@@H](c3cc(Cl)ccc3C#N)C2)nn1 (single isomer, unassigned) [Example 57, N-((cis)-3-(5-chloro-2-cyanophenyl)cyclobutyl)-1-((R or S)-1-(6-((1R,5S)-2-oxo-3-azabicyclo[3.1.0]hexan-3-yl)pyridin-3-yl)ethyl)-1H-1,2,3-triazole-4-carboxamide] |
| 5 | Cc1cc(N2C[C@H]3C[C@H]3C2=O)ncc1[C@H](C)n1cc(C(=O)N[C@H]2C[C@@H](c3cc(Cl)ccc3-n3cc(F)cn3)C2)nn1 [Example 149, N-((cis)-3-(5-chloro-2-(4-fluoro-1H-pyrazol-1-yl)phenyl)cyclobutyl)-1-((S)-1-(4-methyl-6-((1R,5S)-2-oxo-3-azabicyclo[3.1.0]hexan-3-yl)pyridin-3-yl)ethyl)-1H-1,2,3-triazole-4-carboxamide] |
| 127 | Cc1cc(N2C[C@H]3C[C@H]3C2=O)nnc1C(C)n1cc(C(=O)N[C@H]2C[C@@H](c3cc(Cl)ccc3C#N)C2)cn1 (single isomer, unassigned) [Example 48, N-((cis)-3-(5-chloro-2-cyanophenyl)cyclobutyl)-1-((S or R)-1-(4-methyl-6-((1R,5S)-2-oxo-3-azabicyclo[3.1.0]hexan-3-yl)pyridazin-3-yl)ethyl)-1H-pyrazole-4-carboxamide] |
| 0.3 | Cc1cc(N2C[C@H]3C[C@H]3C2=O)ncc1C(C)n1cc(C(=O)N[C@H]2C[C@@H](c3cc(Cl)ccc3C#N)C2)c(C)n1 (single isomer, unassigned) [Example 19, N-((cis)-3-(5-chloro-2-cyanophenyl)cyclobutyl)-3-methyl-1-((R or S)-1-(4-methyl-6-((1R,5S)-2-oxo-3-azabicyclo[3.1.0]hexan-3-yl)pyridin-3-yl)ethyl)-1H-pyrazole-4-carboxamide] |
| 0.2 | Cc1cc(N2C[C@H]3C[C@H]3C2=O)ncc1C(C)n1cc(C(=O)N[C@H]2C[C@@](F)(c3cc(Cl)ccc3C#N)C2)nn1 (single isomer, unassigned) [Example 75, N-(cis)-3-(5-chloro-2-cyanophenyl)-3-fluorocyclobutyl)-1-((R or S)-1-(4-methyl-6-((1R,5S)-2-oxo-3-azabicyclo[3.1.0]hexan-3-yl)pyridin-3-yl)ethyl)-1H-1,2,3-triazole-4-carboxamide] |
| 1.9 | Cc1nc(N2C[C@H]3C[C@H]3C2=O)ncc1C(C)n1cc(C(=O)N[C@H]2C[C@@H](c3cc(Cl)ccc3C#N)C2)nn1 (single isomer, unassigned) [Example 81, N-((cis)-3-(5-chloro-2-cyanophenyl)cyclobutyl)-1-((S or R)-1-(4-methyl-2-((1R,5S)-2-oxo-3-azabicyclo[3.1.0]hexan-3-yl)pyrimidin-5-yl)ethyl)-1H-1,2,3-triazole-4-carboxamide] |
| 0.6 | Cc1nc(N2C[C@H]3C[C@H]3C2=O)ncc1C(C)n1cc(C(=O)NC2CC(C)(c3cc(Cl)ccc3C#N)C2)nn1 (single isomer, unassigned) [Example 82, N-((cis)-3-(5-chloro-2-cyanophenyl)-3-methylcyclobutyl)-1-((R or S)-1-(4-methyl-2-((1R,5S)-2-oxo-3-azabicyclo[3.1.0]hexan-3-yl)pyrimidin-5-yl)ethyl)-1H-1,2,3-triazole-4-carboxamide] |
| 0.7 | Cc1cc([C@@H](C)n2cc(C(=O)N[C@H]3C[C@@H](c4cc(Cl)ccc4C#N)C3)cn2)cnc1N1C[C@H]2C[C@H]2C1=O (single isomer, unassigned) [Example 6] |
| 2.1 | Cc1cc(N2C[C@H]3C[C@H]3C2=O)ncc1C(C)n1cc(C(=O)N[C@H]2C[C@@H](c3cc(Cl)ccc3C#N)C2)c(C)n1 (single isomer, unassigned) [Example 20, N-((cis)-3-(5-chloro-2-cyanophenyl)cyclobutyl)-3-methyl-1-((S or R)-1-(4-methyl-6-((1R,5S)-2-oxo-3-azabicyclo[3.1.0]hexan-3-yl)pyridin-3-yl)ethyl)-1H-pyrazole-4-carboxamide] |
| 10.2 | CC(c1cnc(N2C[C@H]3C[C@H]3C2=O)nc1)n1cc(C(=O)N[C@H]2C[C@@H](c3cc(Cl)ccc3C#N)C2)c(C#N)n1 (single isomer, unassigned) [Example 18, N-((cis)-3-(5-chloro-2-cyanophenyl)cyclobutyl)-3-cyano-1-((S or R)-1-(2-((1R,5S)-2-oxo-3-azabicyclo[3.1.0]hexan-3-yl)pyrimidin-5-yl)ethyl)-1H-pyrazole-4-carboxamide] |
| 102 | Cc1cc(N2C[C@H]3C[C@H]3C2=O)ncc1C(C)n1cc(C(=O)N[C@H]2C[C@@H](c3cc(F)ccc3C#N)C2)cn1 (single isomer, unassigned) [Example 35, N-((cis)-3-(2-cyano-5-fluorophenyl)cyclobutyl)-1-((S or R)-1-(4-methyl-6-((1R,5S)-2-oxo-3-azabicyclo[3.1.0]hexan-3-yl)pyridin-3-yl)ethyl)-1H-pyrazole-4-carboxamide] |
| 0.9 | Cc1nc(C(C)n2cc(C(=O)N[C@H]3C[C@@H](c4cc(Cl)ccc4C#N)C3)nn2)cnc1N1C[C@H]2CC2C1=O (single isomer, unassigned) [Example 85] |
| 2.1 | CC(c1cnc(N2C[C@H]3C[C@H]3C2=O)c(F)c1)n1cc(C(=O)N[C@H]2C[C@@H](c3cc(Cl)ccc3C#N)C2)nn1 (single isomer, unassigned) [Example 103, N-((cis)-3-(5-chloro-2-cyanophenyl)cyclobutyl)-1-((R or S)-1-(5-fluoro-6-((1R,5S)-2-oxo-3-azabicyclo[3.1.0]hexan-3-yl)pyridin-3-yl)ethyl)-1H-1,2,3-triazole-4-carboxamide] |
